This note sets out measurements from patent publication US20230416298A1, “PRODRUGS OF NEUROACTIVE STEROIDS” (Brii Biosciences, Inc., priority 2020, published 2023).

A short description of one data set: Plasma stability. The class given is in vitro ADME. The following applies: 37° C.; for Stability in Human Plasma Formation of parent compound: 2 μM, Yes/No; for half-life at 2 μM: pooled plasma, pH 7.4, human plasma, time points 0, 10, 30, 60 and 120 min. As to the method:
The pooled frozen plasma was thawed in a water bath at 37° C. prior to experiment. Plasma was centrifuged at 4000 rpm for 5 min and the clots were removed if any. The pH will be adjusted to 7.4±0.1 if required.
Preparation of test compounds and positive control (propantheline bromide): 1 mM intermediate solution was prepared by diluting 10 μL of the stock solution with 90 μL MeOH; 1 mM intermediate of positive control Propantheline was prepared by diluting 10 μL of the stock solution with 90 μL ultrapure water. 100 μM dosing solution was prepared by diluting 20 μL of the intermediate solution (1 mM) with 180 μL MeOH. 98 μL of blank plasma was spiked with 2 μL of dosing solution (100 μM) to achieve 2 μM of the final concentration in duplicate and samples were incubated at 37° C. in a water bath. At each time point (0,10, 30, 60 and 120 min), 400 μL of stop solution (0.1% FA in MeOH containing 200 ng/mL tolbutamide and 200 ng/mL Labetalol) was added to precipitate protein and mixed thoroughly. Centrifuged sample plates at 4,000 rpm for 10 min. An aliquot of supernatant (100 μL) was transferred from each well to another plates.
Data analysis: The % remaining of test compound after incubation in plasma was calculated using following equation:
% Remaining=[…]×(PAR at appointed incubation time/PAR at T0 time)
where PAR is the peak area ratio of analyte versus internal standard (IS) (LC/MS/MS mobile phase condition: 0.1% Formic Acid in Water/0.1% Formic Acid in Acetonitrile. The appointed incubation time points are TO (0 min), Tn (n=0, 10, 30, 60, 120 min).

A short description of a further data set: Liver S9 stability. The format is in vitro ADME. The following applies: human liver S9, 37° C.; for half-life at 1 μM: time points up to 60 min; for Stability in Human Liver S9 Formation of parent compound: Yes/No. As to the method: Intermediate solution: Dilute 5 μL of compounds or controls (7-ethoxycoumarin) from stock solution (10 mM) with 495 μL MeOH (Conc.: 100 μM, 1% DMSO, 99% MeOH). Stop solution: Cold ACN (including 100 ng/mL Tolbutamide and Labetalol as internal standard). Add 2 μL test compound or control working solution/well to all plates (T0, T5, T10, T20, T30, T60, NCF60) except matrix blank. Add 600 μL/well stop solution (cold in 4° C., including 100 ng/mL Tolbutamide/100 ng/mL Labetalol) to terminate the TO plate, then put it on ice. Dispense 840 μL/well S9 solution to 96-well plate as reservoir according to plate map. Then add 100 μL/well to every plate by Apricot. Incubate S9 solution and compound at 37° C. for about 10 min except NCF60 and TO. After adding S9 solution and 98 μ LPB buffer to NCF60, incubate at 37° C. without pre-warming, start timer 1. After 60 min, add 600 μL/well stop solution to terminate the reaction. After pre-warming, dispense 760 μL/well cofactor solution to 96-well plate as reservoir according to plate map. Then add 98 μL/well to every plate by Apricot to start reaction. Incubate at 37° C., start timer 2, Add 600 μL/well stop solution (cold in 4° C., including 100 ng/mL Tolbutamide and Labetalol) to terminate the reaction. Samples are centrifuged at 4000 rpm for 20 min. While centrifuging, load 8×new 96-well plate with 300 μL HPLC water, then transfer 100 μL supernatant, mix with water for LC/MS/MS, transferred to Bioanalytical Services for LC-MS/MS analysis. Use equation of first order kinetics to calculate t1/2 and CL: Equation of first order kinetics: […]

The term half-life denotes the time needed for the level to fall by half in the phase considered. A lower half-life goes with rapid decline. Consider `CC(=O)[C@H]1CC[C@H]2[C@@H]3CC[C@H]4C[C@H](OC(=O)OCCNC(=O)C(C)C)CC[C@]4(C)[C@H]3CC[C@]12C` [Example 24, [(3R,5S,8R,9S,10S,13S,14S,17S)-17-acetyl-10,13-dimethyl-2,3,4,5,6,7,8,9,11,12,14,15,16,17-tetradecahydro-1H-cyclopenta[a]phenanthren-3-yl] 2-(2-methylpropanoylamino)ethyl carbonate)], for which, in “Plasma stability”, the “Stability in Human Plasma Formation of parent compound” value (shortened to “Stability in Human Plasma Formation”) is reported as “No” and the half-life at 2 μM is above 3.33 h. For the same compound, in “Liver S9 stability”, the half-life at 1 μM is below 0.833 h and the “Stability in Human Liver S9 Formation of parent compound” value (shortened to “Stability in Human Liver S9 Formation”) is reported as “No”.
Consider `CC(=O)[C@H]1CC[C@H]2[C@@H]3CC[C@H]4C[C@H](OC(=O)OCCN(C)C(=O)C(C)C)CC[C@]4(C)[C@H]3CC[C@]12C` [Example 25, (3R,5S,8R,9S,10S,13S,14S,17S)-17-acetyl-10,13-dimethylhexadecahydro-1H-cycl penta[a]phenanthren-3-yl(2-(N-methylisobutyramido)ethyl) carbonate], for which, in “Plasma stability”, the “Stability in Human Plasma Formation” value is “No” and the half-life at 2 μM is above 3.33 h. Besides, in the data set “Liver S9 stability”, the half-life at 1 μM is below 0.833 h and the “Stability in Human Liver S9 Formation” value is “No”.
With `COC(=O)N(C)CCOC(=O)O[C@@H]1CC[C@@]2(C)[C@@H](CC[C@@H]3[C@@H]2CC[C@]2(C)[C@@H](C(C)=O)CC[C@@H]32)C1` [Example 27, [(3R,5S,8R,9S,10S,13S,14S,17S)-17-acetyl-10,13-dimethyl-2,3,4,5,6,7,8,9,11,12,14,15,16,17-tetradecahydro-1H-cyclopenta[a]phenanthren-3-yl]2-(methoxycarbonyl-N-methylamino)ethyl carbonate], in “Plasma stability”, the “Stability in Human Plasma Formation” value is “No” and the half-life at 2 μM was above 3.33 h. In the data set “Liver S9 stability”, the half-life at 1 μM was below 0.833 h and the “Stability in Human Liver S9 Formation” value is “Yes”.
